Results reported in patent US5100776A, “Immunological detection process for herbicides” (Dr. Pfeiffer Bioanalytik KG, priority 1987, dated 1992).

Tested on: antibody (high specificity for atrazine)
Experiment: Cross-reactivity of triazines and other herbicides in competitive enzyme immunoassay (inhibition of enzyme tracer binding)
Parameters: species or system rabbits
Conditions: Cross-activity at a concentration of 2 ppb; inhibition of the enzymatic detection system
Description: For the preparation of an antibody A, which is preferably directed against the side [drawing 3] of the atrazine molecule, at first the methylthioether group of the triazine ametryn is sulfoxidized with peroxy acid and then the modified ametryn is coupled directly with the beef serum albumin. In the analogous way, for the development of an antibody B, which is preferentially directed against the side: [drawing 4] of the atrazine molecule, one of the ethylamino groups of the triazine simazine is bonded by the carbodiimide process to the protein. Lastly an antibody C which preferably responds to the side: [drawing 5] of the atrazine is produced by coupling the herbicide propazine via one of the isopropylamino groups with the carrier matrix.
The conjugates prepared as above are inoculated for the generation of antibodies A, B and C in laboratory animals (rabbits) which are then extracted from the sera of the immunized animals by known processes or by affinity chromatography by substituents according to formula (I).
The antibodies obtained are adsorbed on the polystyrene surface of the microtiter cavities. To this end, the antibodies are dissolved in carbonate buffer (Na2 CO3 /NaHCO3 : 50 mmol/liter; pH 9.6) and respectively 0.25 ml of the solution obtained is pipetted into the individual cavities of the microtiter plate. In the following incubation takes place overnight at room temperature and washing takes place next day with TBS buffer. The well covered plates are then stored dry at -20° C. For analysis 180 μl of the aqueous sample to be investigated (concentration of the substance investigated is from 1 μg/l to 200 mg/l) are poured into the cavities and respectively 50 μl enzyme tracer, a conjugate of alkaline phosphatase and a triazine, which is selected depending on the type of the antibody, are added in the cavities. If the detection is carried out with antibody A, ametryn is coupled with the enzyme, but if antibody B or antibody C are present, simazine or propazine are used.
The solutions are mixed by brief horizontal shaking of the microtiter plate. After a further incubation period of 1 hour at 20° C., by washing with TBS buffer (50 mmol/l tris-(hydroxymethyl)-aminomethane, 1 mmol/l MgCl2, 50 mmol/l NaCl, pH 7.8 with HCl, 0.05% of polyoxyethylene sorbitan monooleate) all the molecules which are not bonded on the antibody positions are removed. For the quantitative detection of the bonded enzyme tracer, respectively 125 μl phosphatase substrate solution (1 mg p-nitrophenylphosphate per ml carbonate buffer) are poured into the individual cavities. The enzyme reaction takes place at 20° C., but can be accelerated by incubation at higher temperature. The absorption of the solution in the individual cavities is measured by a vertical ray photometer on the wavelength […]. If it is wished to move into the range of higher sensitivities, overnight incubation at 4° C. is recommended. But it must be recalled that without special demands on reagent, device and spatial unit reproducible results in the ppt range are not attainable. The computation of the antigen concentration of the sample is based on the following background. The enzyme tracer bonds at first with the free antibody bonding positions, which are left over after incubation with the sample antigen. Thus in the presence of high concentrations of sample antigen only few enzyme tracers are bonded, but with lower concentration of sample antigens, on the other hand, many enzyme tracers are bonded. The amount of the bonded enzyme tracer is therefore a function of the sample antigen concentration. The absorption of the reacted substrate amount (color reaction from colorless to yellow) is used as the measurement magnitude for the bonding of the enzyme tracer.
Absorption ratio of unknown sample (B=AB AuB) and zero sample (BO=ABO -AuB):
B/BO=(AB -AuB l)/(ABO -AuB) […]

Compound | inhibition (%)
CSc1nc(N)nc(NC(C)C)n1 [desethylametryn] | 16.8
CNC(=O)N(C)c1nc2ccccc2s1 [metabenzthiazuron] | 8.3
CCNc1nc(N)nc(SC)n1 [desisopropylametryn] | 16.5
CCNc1nc(NC(C)C)nc(SC)n1 [ametryn] | 21.4
CCNc1nc(Cl)nc(NC(C)C)n1 [atrazine, 2-chloro-4-ethylamino-6-isopropylamino-1,3,5-triazine] | 6.0
CSc1nnc(C(C)(C)C)c(=O)n1N [metribuzine] | 6.7
CCC(C)n1c(=O)[nH]c(C)c(Br)c1=O (stereo not drawn) [bromazile] | 11.1
O=C(Oc1ccccc1)n1c(C(F)(F)F)nc2cc(Cl)c(Cl)cc21 [fenazaflor] | 4.4
Cc1cccc(C)c1N(Cn1cccn1)C(=O)CCl [metazachlor] | 15.2
